Where “and” joins values, the source holds several entries; their conditions need not be identical. Identical values can stand only once. Non-standard residues stand in square brackets, D forms with d. Residues, ends and D or L forms follow the SMILES beside them. *: point of attachment. X1 = N#Cc1cc(C(=O)*)ccn1; AEEA = NCCOCCOCC(=O)O; Ahx = NCCCCCC(=O)O
How the values were obtained:
A. baumannii ATCC 17978 = conditions: disc diffusion (EUCAST), 40 μM per disk, inoculum McFarland 0.5 (~10^8 CFU/ml), 18 h at 37°C; volume per disk corrected by Mw equivalent to 40 ug of LASP-072
Method: (§1) According to the EUCAST guidelines ([Eucast, E.C.O.a.S.T., 2021]), the inoculum was standardized in sterile saline to the density of a McFarland 0.50 ± 0.02 standard, corresponding to ∼10^8 CFU/ml of each isolate. The freshly prepared bacterial suspension was evenly inoculated onto agar plates and disks containing 40 μM of peptide-PNA conjugates were applied within 15 min. The diameter of inhibition zones was measured after incubation for 18 h at 37°C. Polymyxin B (40 μM/disk) was employed as the control.
(§2) The selected peptide sequences are known for their antimicrobial activity ([Le et al., 2017]). Therefore, we evaluated the antimicrobial activity of synthesized peptide-PNA conjugates using the Disc Diffusion Assay (DDA) against a panel of MDR Gram-negative bacteria consisting of P. aeruginosa, A. baumannii, K. pneumoniae, E. coli, including the isolates highly polymyxin-resistant A. baumannii 5075R, and A. baumannii 5075D (Figure 4 and Supplementary Table S1). […] During the synthesis of the next set of peptide-PNA conjugates, we switched the direction of the conjugation handles to investigate the impact on the efficiency of conjugation. […]
Figure S8: The inhibition zone (mm) of all peptides, PNA and peptide-PNA conjugates
against A. baumannii ATCC 17978 at a concentration of 40 μM. […]

A. baumannii 5075 = conditions: 40 μM per disk; for Zone of inhibition diameter, Ab 5075: disc diffusion (EUCAST), inoculum McFarland 0.5 (~10^8 CFU/ml), 18 h at 37°C, volume per disk corrected by Mw equivalent to 40 ug of LASP-072
Method: as §1, §2
Figure S11: The inhibition zone (mm) of all peptides, PNA and peptide-PNA conjugates
against A. baumannii 5075 at a concentration of 40 μM. […]

[1] = tested on: Klebsiella pneumoniae ATCC 700721; conditions: disc diffusion (EUCAST), 40 μM per disk, inoculum McFarland 0.5 (~10^8 CFU/ml), 18 h at 37°C; volume per disk corrected by Mw equivalent to 40 ug of LASP-072
Method: as §1, §2
Figure S9: The inhibition zone (mm) of all peptides, PNA and peptide-PNA conjugates
against Klebsiella pneumoniae ATCC 700721 at a concentration of 40 μM.

A. baumannii 5075R = conditions: polymyxin-resistant isolate; disc diffusion (EUCAST), 40 μM per disk, inoculum McFarland 0.5 (~10^8 CFU/ml), 18 h at 37°C; volume per disk corrected by Mw equivalent to 40 ug of LASP-072
Method: as §1, §2
Figure S12: The inhibition zone (mm) of all peptides, PNA and peptide-PNA conjugates
against A. baumannii 5075R at a concentration of 40 μM.

E. coli DH5α = conditions: disc diffusion (EUCAST), 40 μM per disk, inoculum McFarland 0.5 (~10^8 CFU/ml), 18 h at 37°C; volume per disk corrected by Mw equivalent to 40 ug of LASP-072
Method: as §1
(§3) The selected peptide sequences are known for their antimicrobial activity ([Le et al., 2017]). Therefore, we evaluated the antimicrobial activity of synthesized peptide-PNA conjugates using the Disc Diffusion Assay (DDA) against a panel of MDR Gram-negative bacteria consisting of P. aeruginosa, A. baumannii, K. pneumoniae, E. coli, including the isolates highly polymyxin-resistant A. baumannii 5075R, and A. baumannii 5075D (Figure 4 and Supplementary Table S1). […] During the synthesis of the next set of peptide-PNA conjugates, we switched the direction of the conjugation handles to investigate the impact on the efficiency of conjugation.
Figure S10: The inhibition zone (mm) of all peptides, PNA and peptide-PNA conjugates
against E. coli DH5α at a concentration of 40 μM. […]

P. aeruginosa ATCC 27853 = conditions: disc diffusion (EUCAST), 40 μM per disk, inoculum McFarland 0.5 (~10^8 CFU/ml), 18 h at 37°C; volume per disk corrected by Mw equivalent to 40 ug of LASP-072
Method: as §1, §3
Figure S7: The inhibition zone (mm) of all peptides, PNA and peptide-PNA conjugates
against P. aeruginosa ATCC 27853 at a concentration of 40 μM. […]

A. baumannii 5075D = format: cell-based, Acinetobacter baumannii; conditions: polymyxin-dependent resistant isolate; disc diffusion (EUCAST), 40 μM per disk, inoculum McFarland 0.5 (~10^8 CFU/ml), 18 h at 37°C; volume per disk corrected by Mw equivalent to 40 ug of LASP-072
Method: as §1
(§4) The selected peptide sequences are known for their antimicrobial activity ([Le et al., 2017]). Therefore, we evaluated the antimicrobial activity of synthesized peptide-PNA conjugates using the Disc Diffusion Assay (DDA) against a panel of MDR Gram-negative bacteria consisting of P. aeruginosa, A. baumannii, K. pneumoniae, E. coli, including the isolates highly polymyxin-resistant A. baumannii 5075R, and A. baumannii 5075D (Figure 4 and Supplementary Table S1). […] Therefore, we further synthesized 10-mer PNAs targeting four bacterial essential genes anti-rpoA LASP-095 ([Abushahba et al., 2016]), anti-murA LASP-096 ([Goh et al., 2009]; [Mondhe et al., 2014]), anti-acpP LASP-097 ([Hansen et al., 2016]), and anti-rpoD LASP-119 ([Bai et al., 2012]; [Alajlouni and Seleem, 2013]). During the synthesis of the next set of peptide-PNA conjugates, we switched the direction of the conjugation handles to investigate the impact on the efficiency of conjugation. Here, PNAs were synthesized with an N-terminal CINA moiety (LASP-095, 096, 097 and 119, Table 1) and a polymyxin analogue (LASP-072, Table 1) was synthesized containing an N-terminal cysteine residue (Supplementary Figure S3).
Table S1: Inhibition zone (mm) for peptide, PNA, and peptide-PNA conjugates
Zone of inhibition diameter (mm)
Mw equivalent Pa Ab Kp Ab Ab

[2] = tested on: panel of MDR Gram-negative bacteria consisting of P. aeruginosa, A. baumannii, K. pneumoniae, E. coli; assay: Disc diffusion assay, statements for the whole panel; format: cell-based; conditions: 40 μM per disk, 18 h at 37°C, statement of the text for the whole panel
Method: as §1, §4

Row | Compound | Zone of inhibition diameter, Ab ATCC 17978 (A. baumannii ATCC 17978) | Zone of inhibition diameter, Ab 5075 (A. baumannii 5075) | Zone of inhibition diameter, Kp ATCC 700721 [1] | Zone of inhibition diameter, Ab 5075 R (A. baumannii 5075R) | Zone of inhibition diameter, E. coli DH5α (E. coli DH5α) | Zone of inhibition diameter, Pa ATCC 27853 (P. aeruginosa ATCC 27853) | Zone of inhibition diameter, Ab 5075 D (A. baumannii 5075D) | Diameter of inhibition zones over the panel of bacteria [2] | Bacterial growth in the presence of the conjugate (polymyxin-dependent phenotype) (A. baumannii 5075; disc diffusion, result in words)
1 | N#Cc1cc(C(=O)NCCCC[C@H](NC(=O)COCCOCCNC(=O)[C@H](CCCNC(=N)N)NC(=O)CCCCCNC(=O)[C@H](CCCNC(=N)N)NC(=O)[C@H](CCCNC(=N)N)NC(=O)CCCCCNC(=O)[C@H](CCCNC(=N)N)NC(=O)[C@H](CCCNC(=N)N)NC(=O)CCCCCNC(=O)[C@H](CCCNC(=N)N)NC(=O)[C@H](CCCNC(=N)N)NC(=O)CCCCCNC(=O)[C@@H](N)CCCNC(=N)N)C(N)=O)ccn1 [LASP-054] (H-R[Ahx]RR[Ahx]RR[Ahx]RR[Ahx]R[AEEA]K(X1)-NH2) | 9 mm | 8 mm | 8 mm | 8 mm | 9 mm | 0 mm | 9 mm |  | 
2 | CINA-PEG-OctGly-Dab-Thr-Dab-Dab ^b -Dab-D-Phe-Leu-Dab-Dab-Thr ^b (lariat or depsi) [LASP-026, Polymyxin analogue with a CINA moiety] | 13 mm | 13 mm | 13 mm | 11 mm | 15 mm | 14 mm | 9 mm |  | 
3 | Cys-PEG-OctGly-Dab-Thr-Dab-Dab ^b -Dab-D-Phe-Leu-Dab-Dab-Thr ^b (lariat or depsi) [LASP-130, Conjugate of polymyxin analogue LASP-072 and anti-rpoA PNA LASP-095] | 9 mm | 10 mm | 9 mm | 7 mm | 12 mm | 9 mm | 0 mm | 11–14 mm | 
4 | CINA-PEG-Gly-Lys-Pro-Arg-Pro-Tyr-Ser-Pro-Arg-Pro-Thr-Ser-His-Pro-Arg-Pro-Ile-Arg-Arg-NH2 [LASP-084, Conjugate of drosocin peptide LASP-077 and PNA LASP-050] | 0 mm |  | 0 mm | 0 mm | 8 mm | 0 mm | 7 mm and 8 mm |  | greater bacterial growth
5 | CINA-PEG-Val-Cys ^c -Lys-Arg-trp-Lys-Lys-Trp-Lys-Arg-Lys-Trp-Lys-Lys-Trp-Cys ^c -Val-NH2 (sidechain bridge or staple) [LASP-086, Thioether cross-linked cathelicidin-PNA conjugate of LASP-078 and LASP-050] | 0 mm | 0 mm | 0 mm | 0 mm | 0 mm | 0 mm | 0 mm | No zone of bacterial growth inhibition | 
6 | H-Arg-Acp-Arg-Arg-Acp-Arg-Arg-Acp-Arg-Arg-Acp-Arg-PEG-Lys (CINA)-NH2 [LASP-058, Conjugate of RXR peptide LASP-054 and PNA LASP-050 by Cys-CINA linkage] | 0 mm | 0 mm | 0 mm | 0 mm | 0 mm | 0 mm | 0 mm | No zone of bacterial growth inhibition | 
7 | CINA-PEG-Val-Cys ^d -Lys-Arg-trp-Lys-Lys-Trp-Lys-Arg-Lys-Trp-Lys-Lys-Trp-Cys ^d -Val-NH2 (disulfide) [LASP-088] | 0 mm | 7 mm and 8 mm | 0 mm | 0 mm | 8 mm | 0 mm |  |  | 
8 | CINA-PEG-Gly-Lys-Pro-Arg-Pro-Tyr-Ser-Pro-Arg-Pro-Thr-Ser-His-Pro-Arg-Pro-Ile-Arg-Arg-NH2 [LASP-077, CINA antimicrobial peptide drosocin containing 19 amino acids] | 0 mm | 0 mm | 0 mm | 0 mm | 0 mm | 0 mm | 0 mm |  | 
